Results on 15 molecules are retold here after PubChem BioAssay (NCI).

Test in all cases: NCI anticancer screen, dose series, 48 h
The test system of assay [1] is BT-549 breast.
Assay [2] deals with DU-145 prostate.
For assay [3], the system named is EKVX NSCLC.
Assay [4] deals with HCC-2998 colon.
Assay [5] has as its system NCI-H226 lung.
In assay [6] the test system is NCI-H23 lung.
For assay [7], the system named is NCI-H522 lung.
For assay [8], the system named is OVCAR-4 ovarian.
Assay [9] has as its system OVCAR-5 ovarian.
Assay [10] concerns RXF 393 renal.

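Test compounds were applied to cells in 96-well plates for 48 hours at 5 doses. GI50 marks 50% less growth. TGI: concentration producing complete growth inhibition.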 Bounds are passed on as bounds.

As to `CCSc1nc(SCC)c2c(-c3ccc(OC)c(OC)c3)c(C#N)c(SCC)nc2n1`, the GI50 was 23.5 µM in assay [1]; 17.7 µM in [2]; 17.4 µM in assay [3]; 21 µM in assay [4]; 20.5 µM in [5]; 14.9 µM in [6]. The GI50 in assay [7] is 41.1 µM; in [8] it was 31.8 µM; in [9] it was 18.8 µM; in assay [10] it was 59.7 µM. The TGI in assay [1] was greater than 100 µM; in assay [2] it was 47.8 µM; in [3], 53.3 µM; in assay [4] it was 49.2 µM; in assay [5] it was 54.6 µM; in assay [6], 53.1 µM. In addition, the TGI in [7] was greater than 100 µM; in assay [8], greater than 100 µM; in assay [9], 47.7 µM; in assay [10] it was greater than 100 µM.
On to `O=C1C(SCCO)=C(SCCO)C(=O)N1c1ccc(-c2ccccc2)cc1`, for which the GI50 is 4.01 µM in assay [1]; 3.59 µM in assay [2]; 9.5 µM in assay [3]; 3.65 µM in assay [4]; 23.1 µM in assay [5]; 4.38 µM in assay [6]. The GI50 in [7] is 7.51 µM; in assay [8] it was 0.932 µM; in assay [9] it was 3.61 µM; in assay [10] it was 1.19 µM. For the same molecule, the TGI in assay [1] was 8.38 µM; in assay [2] it was 8.94 µM; in assay [3] it was 23.3 µM; in assay [4], 9.87 µM; in [5] it was greater than 53.4 µM; in [6], 13.3 µM. Besides, the TGI in assay [7] was found to be 22.6 µM; in assay [8] it was 3.1 µM; in assay [9] it was 11 µM; in assay [10], 2.73 µM.
`Cn1cccc1-c1cc(-c2ccc(Br)cc2)[nH]c(=O)c1C#N`: the GI50 was 85.2 µM in assay [1]; greater than 100 µM in assay [2]; 34.5 µM in assay [3]; greater than 100 µM in assay [4]; greater than 100 µM in assay [5]; greater than 100 µM in assay [6]. Further, the GI50 in [7] is 82.1 µM; in assay [8] it was greater than 100 µM; in assay [9], greater than 100 µM; in [10], greater than 100 µM. Besides, the TGI in assay [1], in assay [2], in [3], in [4], in assay [5] and in [6] was greater than 100 µM throughout. Also, the TGI in assay [7], in assay [8], in [9] and in [10] was greater than 100 µM in each case.
Turning to `Nc1ncnc2c1c(-c1ccc(Oc3ccccc3)cc1)nn2C[C@@H]1SSC[C@H]1O`, the GI50 in assay [1] is 3.58 µM; in assay [2], 2.26 µM; in [3], 0.568 µM; in [4], 4.34 µM; in [5], 1.69 µM; in assay [6] it was 0.916 µM. Besides, the GI50 is 2.08 µM in assay [7], 2.12 µM in assay [8], 3.47 µM in [9] and 1.82 µM in assay [10]. Further, the TGI was found to be 11.6 µM in assay [1]; 8.97 µM in assay [2]; 10.5 µM in assay [3]; 23.5 µM in assay [4]; 4.7 µM in assay [5]; 8.17 µM in assay [6]. The TGI is 7.18 µM in assay [7], greater than 83.4 µM in assay [8], 26.6 µM in assay [9] and 5.18 µM in [10].
Regarding `N#CSCc1ccc(Cl)c(CSC#N)c1`, the GI50 in [1] is 0.303 µM; in assay [2], 0.121 µM; in assay [3], 20.7 µM; in assay [4] it was 6.61 µM; in assay [5], 3.11 µM; in assay [6], 0.913 µM. Further, the GI50 in [7] is 0.0816 µM; in assay [8], 0.659 µM; in assay [9], 1.77 µM; in assay [10], 0.559 µM. The TGI in assay [1] is 11.2 µM; in assay [2] it was 12.7 µM; in assay [3], greater than 80.3 µM; in assay [4], 34.5 µM; in assay [5] it was 10.3 µM; in [6], 44.5 µM. For the same molecule, the TGI was 9.06 µM in [7], 19.4 µM in assay [8], 24.5 µM in assay [9] and 12.3 µM in assay [10].
On to `Nc1ccccc1C#C/C=C\C#Cc1cccc(O)c1`, for which the GI50 in assay [1] was 7.12 µM; in assay [2] it was 16.8 µM; in assay [3] it was 2.69 µM; in assay [4] it was 3.98 µM; in assay [5] it was 6.03 µM; in assay [6], 2.44 µM. For the same molecule, the GI50 in assay [7] was 1.09 µM; in [8], 6.68 µM; in assay [9], 7.64 µM; in assay [10], 0.423 µM. Besides, the TGI in assay [1] is 25.8 µM; in assay [2], greater than 57.7 µM; in assay [3] it was 23.4 µM; in assay [4], 9.08 µM; in [5], 20.9 µM; in assay [6], 9.38 µM. Moreover, the TGI is 11.5 µM in assay [7], greater than 84.8 µM in assay [8], 23 µM in assay [9] and 5.02 µM in assay [10].
Regarding `O=C(Nc1ccc(Oc2cccc(F)c2)c(Cl)c1)c1cnccn1`, the GI50 is 2.18 µM in assay [1]; 2 µM in assay [2]; 2.67 µM in assay [3]; 6.04 µM in assay [4]; 2.6 µM in assay [5]; 3 µM in [6]. Further, the GI50 in assay [7] is 1.19 µM; in assay [8] it was 36.6 µM; in assay [9], 4.27 µM; in assay [10], 1.23 µM. Besides, the TGI in [1], in assay [2], in assay [3], in [4], in [5] and in [6] was greater than 50 µM throughout. Besides, the TGI was greater than 50 µM in assay [7], greater than 50 µM in [8], greater than 50 µM in assay [9] and 3.72 µM in [10].
As to `COC(=N)c1c(N)[n+]([O-])c2ccc(F)cc2[n+]1[O-]`, the GI50 in assay [1] was greater than 100 µM; in assay [2], greater than 100 µM; in assay [3] it was 99.1 µM; in [4], greater than 100 µM; in assay [5], greater than 100 µM; in assay [6] it was greater than 100 µM. The GI50 in assay [7] was 54.7 µM; in assay [8], greater than 100 µM; in assay [9], greater than 100 µM; in [10], greater than 100 µM. For the same molecule, the TGI in [1], in assay [2], in assay [3], in assay [4], in assay [5] and in [6] was greater than 100 µM throughout. Further, the TGI in [7], in [8], in assay [9] and in [10] was greater than 100 µM in each case.
As for `CCc1ccc2c(c1)C(=O)c1c-2n(CCCN=[N+]=[N-])c(=O)c2cc(OC)c(OC)cc12`, the GI50 in assay [1] was 76.5 µM; in assay [2], greater than 100 µM; in [3], greater than 100 µM; in assay [4], greater than 100 µM; in assay [5] it was greater than 100 µM; in [6], greater than 100 µM. Moreover, the GI50 in assay [7] was 49 µM; in [8], greater than 100 µM; in assay [9] it was greater than 100 µM; in assay [10], 29.9 µM. Besides, the TGI in [1], in [2], in assay [3], in assay [4], in [5] and in assay [6] was greater than 100 µM each time. Further, the TGI in [7], in [8], in [9] and in [10] was greater than 100 µM each time.
Turning to `COC(=O)C1=C(C)NC(C)=C(C(=O)OCC(C)C)C1c1ccccc1[N+](=O)[O-]` (stereo unspecified), the GI50 in [1] was 5.06 µM; in assay [2] it was 5.48 µM; in [3], 8.06 µM; in assay [4] it was 6.18 µM; in [5], 3.75 µM; in [6], 3.47 µM. The GI50 in [7] is 2.4 µM; in [8], 2.32 µM; in assay [9], 7.52 µM; in assay [10], 2.11 µM. Moreover, the TGI was 17.1 µM in assay [1]; 34.7 µM in assay [2]; 32.7 µM in [3]; 22.4 µM in assay [4]; 15.1 µM in assay [5]; 16.5 µM in [6]. For the same molecule, the TGI in assay [7] turned out to be 10.7 µM; in assay [8], 11.8 µM; in assay [9], 22.5 µM; in [10], 8.31 µM.
Take `Cc1ccc(-c2nc3nc(-c4ccccc4)nc(N4CCNCC4)c3o2)cc1`: the GI50 is 1.69 µM in assay [1]; 0.508 µM in assay [2]; 1.74 µM in [3]; 1.4 µM in assay [4]; 1.79 µM in [5]; 1.8 µM in assay [6]. Besides, the GI50 in [7] was 0.745 µM; in assay [8], 0.435 µM; in assay [9] it was 1.31 µM; in assay [10], 1.43 µM. Also, the TGI came out at 3.13 µM in [1]; 1.73 µM in [2]; 3.24 µM in assay [3]; 2.86 µM in assay [4]; 3.79 µM in assay [5]; 3.53 µM in [6]. For the same molecule, the TGI in assay [7] worked out at 2.26 µM; in assay [8], 1.6 µM; in [9], 2.74 µM; in [10], 2.97 µM.
As for `O=S(=O)(c1cccc2c(I)cccc12)N1CCCNCC1`, the GI50 in assay [1] was 16.7 µM; in assay [2] it was 15.8 µM; in [3] it was 19.8 µM; in assay [4] it was 17.4 µM; in assay [5], 17.8 µM; in assay [6] it was 17 µM. Also, the GI50 in [7] is 14.8 µM; in [8], 18.6 µM; in assay [9], 16 µM; in [10], 27.3 µM. Also, the TGI worked out at 43.3 µM in assay [1]; 36.3 µM in assay [2]; 39.7 µM in assay [3]; 35.1 µM in assay [4]; 34.8 µM in assay [5]; 34 µM in assay [6]. For the same molecule, the TGI in [7] was 30.3 µM; in assay [8], 38.4 µM; in [9], 33.5 µM; in assay [10], 73 µM.
With `COc1cccc(-c2cc3c4c(nc5ccccc53)C(=O)c3cccnc3-c4n2)c1`, the GI50 was 10.6 µM in assay [1]; 1.67 µM in assay [2]; 3.98 µM in [3]; 2.2 µM in [4]; 6.27 µM in assay [5]; 1.47 µM in assay [6]. The GI50 in assay [7] was 0.429 µM; in assay [8], 1.94 µM; in assay [9], 3.05 µM; in assay [10] it was 2.47 µM. Further, the TGI in assay [1] was 28.1 µM; in assay [2], 3.13 µM; in [3], 14.2 µM; in assay [4], 4.61 µM; in assay [5], 22.3 µM; in [6], 4.28 µM. Moreover, the TGI in [7] worked out at 2.01 µM; in assay [8], 8.5 µM; in assay [9] it was 8.92 µM; in [10], 9.91 µM.
As to `COc1ccc(/C=C(\C(=O)NCc2cccnc2)S(=O)(=O)c2ccccc2)cc1OC`, the GI50 in [1] was 2.45 µM; in assay [2], 3.06 µM; in assay [3] it was 3.13 µM; in [4], 3.91 µM; in assay [5] it was 3.13 µM; in assay [6] it was 3.01 µM. Besides, the GI50 in assay [7] was 1.7 µM; in assay [9], 3.31 µM; in assay [10], 2.08 µM. Further, the TGI in assay [1] was 6.69 µM; in assay [2], 12.4 µM; in [3], 12.2 µM; in [4], 15.1 µM; in [5] it was 10.7 µM; in assay [6] it was 10.6 µM. The TGI in assay [7] is 4.61 µM; in assay [9] it was 10.3 µM; in assay [10] it was 4.26 µM.
Regarding `C=C1CC[C@@H]2[C@](C)(COC(C)=O)[C@H](OC(C)=O)CC[C@@]2(C)[C@@H]1CC(Nc1ccc(S(=O)(=O)Nc2ccc(Cl)nn2)cc1)C1=CCOC1=O` (stereo partly specified), the GI50 was 1.58 µM in assay [1]; 1.7 µM in [2]; 4.53 µM in [3]; 1.84 µM in [4]; 2.06 µM in assay [6]; 0.754 µM in assay [7]. In addition, the GI50 was 1.47 µM in assay [8], 2.01 µM in [9] and 1.77 µM in [10]. Further, the TGI in assay [1] amounted to 3.14 µM; in assay [2], 3.45 µM; in assay [3] it was 17 µM; in assay [4], 3.86 µM; in [6], 5.35 µM; in assay [7], 2.1 µM. Also, the TGI was found to be 3.17 µM in assay [8], 4.16 µM in assay [9] and 3.29 µM in assay [10].
